From PubChem BioAssay (NCI)
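GI50 marks 50% less growth. TGI is the concentration that stops growth completely.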

Columns and labels:
Assay in all cases: NCI anticancer screen, dose series, 384-well format
786-0 renal = system: 786-0 renal
CAKI-1 renal = system: CAKI-1 renal
CCRF-CEM leukemia = system: CCRF-CEM leukemia
COLO 205 colon = system: COLO 205 colon
EKVX NSCLC = system: EKVX NSCLC
HCC-2998 colon = system: HCC-2998 colon
HCT-116 colon = system: HCT-116 colon
HCT-15 colon = system: HCT-15 colon
HL-60(TB) leukemia = system: HL-60(TB) leukemia
HOP-62 NSCLC = system: HOP-62 NSCLC
HOP-92 NSCLC = system: HOP-92 NSCLC
HS 578T breast = system: HS 578T breast
K-562 leukemia = system: K-562 leukemia
KM12 colon = system: KM12 colon
LOX IMVI melanoma = system: LOX IMVI melanoma
MCF7 breast = system: MCF7 breast
MDA-MB-231 breast = system: MDA-MB-231 breast
MDA-MB-468 breast = system: MDA-MB-468 breast
MOLT-4 leukemia = system: MOLT-4 leukemia
NCI-H226 lung = system: NCI-H226 lung
NCI-H23 lung = system: NCI-H23 lung
NCI-H322M lung = system: NCI-H322M lung
NCI-H522 lung = system: NCI-H522 lung
NCI/ADR-RES ovarian = system: NCI/ADR-RES ovarian
OVCAR-3 ovarian = system: OVCAR-3 ovarian
OVCAR-4 ovarian = system: OVCAR-4 ovarian
OVCAR-5 ovarian = system: OVCAR-5 ovarian
OVCAR-8 ovarian = system: OVCAR-8 ovarian
PC-3 prostate = system: PC-3 prostate
RPMI-8226 leukemia = system: RPMI-8226 leukemia
RXF 393 renal = system: RXF 393 renal
SF-295 CNS = system: SF-295 CNS
SF-539 CNS = system: SF-539 CNS
SK-MEL-2 melanoma = system: SK-MEL-2 melanoma
SK-MEL-28 melanoma = system: SK-MEL-28 melanoma
SK-MEL-5 melanoma = system: SK-MEL-5 melanoma
SK-OV-3 ovarian = system: SK-OV-3 ovarian
SN12C renal = system: SN12C renal
SNB-19 CNS = system: SNB-19 CNS
SNB-75 CNS = system: SNB-75 CNS
SR leukemia = system: SR leukemia
SW-620 colon = system: SW-620 colon
T-47D breast = system: T-47D breast
TK-10 renal = system: TK-10 renal
U251 glioblastoma = system: U251 glioblastoma
UACC-257 melanoma = system: UACC-257 melanoma
UO-31 renal = system: UO-31 renal

`O=C(Nc1cccc(C(F)(F)F)c1)Nc1cc(S(=O)(=O)NC2CC2)ccc1-c1ccsc1` was tested, and the GI50 ([…]-0 renal) was 4.09 µM, the TGI (786-0 renal) was 14.3 µM and the GI50 (CAKI-1 renal) was 3.59 µM. For the same molecule, the TGI (CAKI-1 renal) was 15.2 µM, the GI50 (CCRF-CEM leukemia) was 2400 nM and the TGI (CCRF-CEM leukemia) was 5.85 µM. It also gave a GI50 (COLO 205 colon) of 5.12 µM, a TGI (COLO 205 colon) of 15.7 µM and a GI50 (EKVX NSCLC) of 4.79 µM. For the same molecule, the TGI (EKVX NSCLC) was 15.5 µM, the GI50 (HCC-2998 colon) was 5.7 µM and the TGI (HCC-2998 colon) was 16.2 µM. It also gave a GI50 (HCT-116 colon) of 3.17 µM, a TGI (HCT-116 colon) of 10.6 µM and a GI50 (HCT-15 colon) of 3.49 µM. For the same molecule, the TGI (HCT-15 colon) was 12.5 µM, the GI50 (HL-60(TB) leukemia) was 1930 nM and the TGI (HL-60(TB) leukemia) was 3.52 µM. The GI50 (HOP-62 NSCLC) was 3.98 µM, the TGI (HOP-62 NSCLC) was 13.4 µM and the GI50 (HOP-92 NSCLC) was 3.36 µM. For the same molecule, the TGI (HOP-92 NSCLC) was 10.5 µM, the GI50 (HS 578T breast) was 2870 nM and the TGI (HS 578T breast) was 7.27 µM. For the same molecule, the GI50 (K-562 leukemia) was 3.45 µM, the TGI (K-562 leukemia) was 11.5 µM and the GI50 (KM12 colon) was 4.02 µM. The TGI (KM12 colon) was 12.7 µM, the GI50 (LOX IMVI melanoma) was 4.08 µM and the TGI (LOX IMVI melanoma) was 13.1 µM. The GI50 (MCF7 breast) was 3.68 µM, the TGI (MCF7 breast) was 12.4 µM and the GI50 (MDA-MB-231 breast) was 10.6 µM. It also gave a TGI (MDA-MB-231 breast) of 23 µM, a GI50 (MDA-MB-468 breast) of 1960 nM and a TGI (MDA-MB-468 breast) of 4.12 µM. For the same molecule, the GI50 (MOLT-4 leukemia) was 1780 nM, the TGI (MOLT-4 leukemia) was 3.35 µM and the GI50 (NCI-H226 lung) was 4.75 µM. For the same molecule, the TGI (NCI-H226 lung) was 14.7 µM, the GI50 (NCI-H23 lung) was 2830 nM and the TGI (NCI-H23 lung) was 8.74 µM. The GI50 (NCI-H322M lung) was 5.66 µM, the TGI (NCI-H322M lung) was 17.2 µM and the GI50 (NCI-H522 lung) was 2690 nM. For the same molecule, the TGI (NCI-H522 lung) was 8.11 µM, the GI50 (NCI/ADR-RES ovarian) was 6.69 µM and the TGI (NCI/ADR-RES ovarian) was 18.3 µM. For the same molecule, the GI50 (OVCAR-3 ovarian) was 2420 nM, the TGI (OVCAR-3 ovarian) was 5.79 µM and the GI50 (OVCAR-4 ovarian) was 5.19 µM. It also gave a TGI (OVCAR-4 ovarian) of 17 µM, a GI50 (OVCAR-5 ovarian) of 13.8 µM and a TGI (OVCAR-5 ovarian) of 26.8 µM. It also gave a GI50 (OVCAR-8 ovarian) of 3.73 µM, a TGI (OVCAR-8 ovarian) of 13.4 µM and a GI50 (PC-3 prostate) of 3.92 µM. The TGI (PC-3 prostate) was 13.3 µM, the GI50 (RPMI-8226 leukemia) was 1880 nM and the TGI (RPMI-8226 leukemia) was 3.36 µM. The GI50 (RXF 393 renal) was 3.28 µM, the TGI (RXF 393 renal) was 12.1 µM and the GI50 (SF-295 CNS) was 2960 nM. For the same molecule, the TGI (SF-295 CNS) was 9.42 µM, the GI50 (SF-539 CNS) was 5.91 µM and the TGI (SF-539 CNS) was 15 µM. The GI50 (SK-MEL-2 melanoma) was 2720 nM, the TGI (SK-MEL-2 melanoma) was 6.07 µM and the GI50 (SK-MEL-28 melanoma) was 10.9 µM. The TGI (SK-MEL-28 melanoma) was 22.9 µM, the GI50 (SK-MEL-5 melanoma) was 2320 nM and the TGI (SK-MEL-5 melanoma) was 5.61 µM. The GI50 (SK-OV-3 ovarian) was 7.67 µM, the TGI (SK-OV-3 ovarian) was 19.8 µM and the GI50 (SN12C renal) was 4.71 µM. The TGI (SN12C renal) was 17.6 µM, the GI50 (SNB-19 CNS) was 4.51 µM and the TGI (SNB-19 CNS) was 14.7 µM. For the same molecule, the GI50 (SNB-75 CNS) was 4.25 µM, the TGI (SNB-75 CNS) was 15.6 µM and the GI50 (SR leukemia) was 863 nM. It also gave a TGI (SR leukemia) of 2190 nM, a GI50 (SW-620 colon) of 3.87 µM and a TGI (SW-620 colon) of 13.9 µM. The GI50 (T-47D breast) was 2620 nM, the TGI (T-47D breast) was 8.35 µM and the GI50 (TK-10 renal) was 3.96 µM. The TGI (TK-10 renal) was 14.1 µM, the GI50 (U251 glioblastoma) was 3.43 µM and the TGI (U251 glioblastoma) was 11.3 µM. It also gave a GI50 (UACC-257 melanoma) of 2890 nM, a TGI (UACC-257 melanoma) of 8.51 µM and a GI50 (UO-31 renal) of 4.17 µM. For the same molecule, the TGI (UO-31 renal) was 14.9 µM.
